Eleven compounds from PubChem BioAssay AID288 (DTP/NCI, 2004) can be followed below.

Several values for one entry are separate records, joined by “and”; a condition that tells them apart may be missing. Equal entries are not always repeated. Results filed as inconclusive are left out.

The subject of the test is BDF1 mice, M5076 sarcoma s.c., survival/tumor T/C. In words: NCI In Vivo Anticancer Drug Screen. Data for tumor model Sarcoma M5076 (subcutaneous) in B6D2F1 (BDF1) mice. As to the method: The antitumor activity of compounds was measured in mice bearing transplantable tumors. Survival or tumor size were measured and the results are expressed as the measurement made in the treated group (T) divided by the measurement made in the vehicle treated control group (C). The tumor model used in this assay is Sarcoma M5076 (subcutaneous) in B6D2F1 (BDF1) mice

Where [1] appears, read: endpoint: median survival time, dose: 50.0 mg/kg/injection, schedule: Q01DX009 (ip), vehicle: saline with Tween-80, higher = longer survival.
Where [2] appears, read: endpoint: median survival time, dose: 100.0 mg/kg/injection, schedule: Q01DX009 (ip), vehicle: saline with Tween-80, higher = longer survival.
[3] abbreviates: endpoint: median survival time, dose: 200.0 mg/kg/injection, schedule: Q01DX009 (ip), vehicle: saline with Tween-80, higher = longer survival.
The mark [4] stands for this setting: endpoint: median tumor weight (est.), dose: 100.0 mg/kg/injection, schedule: Q01DX009 (ip), vehicle: saline with Tween-80, higher = larger tumour.
The mark [5] stands for this setting: endpoint: median tumor weight (est.), dose: 50.0 mg/kg/injection, schedule: Q01DX009 (ip), vehicle: saline with Tween-80, higher = larger tumour.
Setting [6] is: endpoint: median tumor weight (est.), dose: 200.0 mg/kg/injection, schedule: Q01DX009 (ip), vehicle: saline with Tween-80, higher = larger tumour.

For the compound `NC(=O)c1csc(C2OC(CO)C(O)C2O)n1` (stereo unspecified), the T/C runs as follows: (endpoint: median survival time, dose: 9.38 mg/kg/injection, schedule: Q01DX009 (ip), vehicle: saline, higher = longer survival) 103 % of control; (endpoint: median survival time, dose: 18.8 mg/kg/injection, schedule: Q01DX009 (ip), vehicle: saline, higher = longer survival) 97 % of control; (endpoint: median survival time, dose: 37.5 mg/kg/injection, schedule: Q01DX009 (ip), vehicle: saline, higher = longer survival) 93 % of control; (endpoint: median survival time, dose: 75.0 mg/kg/injection, schedule: Q01DX009 (ip), vehicle: saline, higher = longer survival) 94 % of control; (endpoint: median survival time, dose: 150.0 mg/kg/injection, schedule: Q01DX009 (ip), vehicle: saline, higher = longer survival) 97 % of control; (endpoint: median survival time, dose: 300.0 mg/kg/injection, schedule: Q01DX009 (ip), vehicle: saline, higher = longer survival) 97 % of control. Further, the T/C reads like this: (endpoint: median survival time, dose: 600.0 mg/kg/injection, schedule: Q01DX009 (ip), vehicle: saline, higher = longer survival) 101 % of control; (endpoint: median tumor weight (est.), dose: 9.38 mg/kg/injection, schedule: Q01DX009 (ip), vehicle: saline, higher = larger tumour) 95 % of control; (endpoint: median tumor weight (est.), dose: 18.8 mg/kg/injection, schedule: Q01DX009 (ip), vehicle: saline, higher = larger tumour) 95 % of control; (endpoint: median tumor weight (est.), dose: 75.0 mg/kg/injection, schedule: Q01DX009 (ip), vehicle: saline, higher = larger tumour) 100 % of control; (endpoint: median tumor weight (est.), dose: 150.0 mg/kg/injection, schedule: Q01DX009 (ip), vehicle: saline, higher = larger tumour) 104 % of control; (endpoint: median tumor weight (est.), dose: 300.0 mg/kg/injection, schedule: Q01DX009 (ip), vehicle: saline, higher = larger tumour) 91 % of control.

Regarding `COC(=O)c1csc(C2OC(CO)C(O)C2O)n1` (stereo unspecified), the T/C by setting is: (endpoint: median survival time, dose: 50.0 mg/kg/injection, schedule: Q01DX009 (ip), vehicle: saline, higher = longer survival) 98 % of control; (endpoint: median survival time, dose: 100.0 mg/kg/injection, schedule: Q01DX009 (ip), vehicle: saline, higher = longer survival) 100 % of control; (endpoint: median survival time, dose: 200.0 mg/kg/injection, schedule: Q01DX009 (ip), vehicle: saline, higher = longer survival) 100 % of control; (endpoint: median tumor weight (est.), dose: 50.0 mg/kg/injection, schedule: Q01DX009 (ip), vehicle: saline, higher = larger tumour) 61 % of control; (endpoint: median tumor weight (est.), dose: 100.0 mg/kg/injection, schedule: Q01DX009 (ip), vehicle: saline, higher = larger tumour) 77 % of control; (endpoint: median tumor weight (est.), dose: 200.0 mg/kg/injection, schedule: Q01DX009 (ip), vehicle: saline, higher = larger tumour) 85 % of control.

On to `CC/C(=C(/CC)c1ccc(O)cc1)c1ccc(O)cc1`, for which the T/C (endpoint: mean tumor weight, dose: 7.5 mg/kg/injection, schedule: Q02DX011 (ip), vehicle: Klucel (hydroxypropylcellulose) (HPC), higher = larger tumour) was 114 % of control; the T/C (endpoint: mean tumor weight, dose: 15.0 mg/kg/injection, schedule: Q02DX011 (ip), vehicle: Klucel (hydroxypropylcellulose) (HPC), higher = larger tumour) is 62 % of control and 87 % of control; the T/C (endpoint: mean tumor weight, dose: 60.0 mg/kg/injection, schedule: Q02DX011 (ip), vehicle: Klucel (hydroxypropylcellulose) (HPC), higher = larger tumour) is 55 % of control; the T/C (endpoint: median tumor weight (est.), dose: 15.0 mg/kg/injection, schedule: Q02DX011 (ip), vehicle: Klucel (hydroxypropylcellulose) (HPC), higher = larger tumour) is 88 % of control; the T/C (endpoint: median tumor weight (est.), dose: 30.0 mg/kg/injection, schedule: Q02DX011 (ip), vehicle: Klucel (hydroxypropylcellulose) (HPC), higher = larger tumour) is 66 % of control; the T/C (endpoint: median tumor weight (est.), dose: 60.0 mg/kg/injection, schedule: Q02DX011 (ip), vehicle: Klucel (hydroxypropylcellulose) (HPC), higher = larger tumour) is 28 % of control.

Turning to `COC(=O)C(Cc1ccccc1)NS(=O)(=O)c1ccc(C)cc1` (stereo unspecified), the T/C reads like this: under setting [1], 98 % of control; under setting [2], 106 % of control; under setting [3], 97 % of control; under setting [4], 118 % of control.

Turning to `O=NN(CCCl)C(=O)NC1CCCCC1`, the T/C reads like this: (endpoint: median survival time, dose: 2.0 mg/kg/injection, schedule: Q04DX006 (ip), vehicle: saline with Tween-80, higher = longer survival) 117 % of control; (endpoint: median survival time, dose: 3.0 mg/kg/injection, schedule: Q01DX009 (ip), vehicle: Klucel (hydroxypropylcellulose) (HPC), higher = longer survival) 168 % of control; (endpoint: median survival time, dose: 4.0 mg/kg/injection, schedule: Q02DX033 (ip), vehicle: saline with Tween-80, higher = longer survival) 250 % of control; (endpoint: median survival time, dose: 4.0 mg/kg/injection, schedule: Q04DX006 (ip), vehicle: saline with Tween-80, higher = longer survival) 120 % of control; (endpoint: median survival time, dose: 6.0 mg/kg/injection, schedule: Q01DX009 (ip), vehicle: Klucel (hydroxypropylcellulose) (HPC), higher = longer survival) 215 % of control; (endpoint: median survival time, dose: 8.0 mg/kg/injection, schedule: Q02DX033 (ip), vehicle: saline with Tween-80, higher = longer survival) 255 % of control. For the same compound, the T/C by setting is: (endpoint: median survival time, dose: 8.0 mg/kg/injection, schedule: Q04DX006 (ip), vehicle: saline with Tween-80, higher = longer survival) 183 % of control; (endpoint: median survival time, dose: 12.0 mg/kg/injection, schedule: Q01DX009 (ip), vehicle: Klucel (hydroxypropylcellulose) (HPC), higher = longer survival) 215 % of control; (endpoint: median survival time, dose: 16.0 mg/kg/injection, schedule: Q04DX006 (ip), vehicle: saline with Tween-80, higher = longer survival) 241 % of control; (endpoint: median tumor weight (est.), dose: 1.5 mg/kg/injection, schedule: Q01DX009 (ip), vehicle: Klucel (hydroxypropylcellulose) (HPC), higher = larger tumour) 10 % of control.

For the compound `Cc1cc(-c2ccc(NC(=O)Nc3cccc(F)c3)c(C)c2)ccc1NC(=O)Nc1cccc(F)c1`, the T/C by setting is: under setting [1], 110 % of control; under setting [2], 102 % of control; under setting [3], 104 % of control; under setting [5], 107 % of control; under setting [4], 84 % of control; under setting [6], 70 % of control.

Regarding `C[C@@]12C(=O)OC(=O)[C@]1(C)[C@H]1CC[C@@H]2O1`, the T/C is 94 % of control (endpoint: median survival time, dose: 0.1 mg/kg/injection, schedule: Q01DX009 (ip), vehicle: acetone, higher = longer survival); 106 % of control (endpoint: median survival time, dose: 0.2 mg/kg/injection, schedule: Q01DX009 (ip), vehicle: acetone, higher = longer survival); 101 % of control (endpoint: median survival time, dose: 0.4 mg/kg/injection, schedule: Q01DX009 (ip), vehicle: acetone, higher = longer survival); 89 % of control (endpoint: median survival time, dose: 0.8 mg/kg/injection, schedule: Q01DX009 (ip), vehicle: acetone, higher = longer survival); 117 % of control (endpoint: median tumor weight (est.), dose: 0.1 mg/kg/injection, schedule: Q01DX009 (ip), vehicle: acetone, higher = larger tumour); 64 % of control (endpoint: median tumor weight (est.), dose: 0.2 mg/kg/injection, schedule: Q01DX009 (ip), vehicle: acetone, higher = larger tumour). In addition, the T/C was 109 % of control (endpoint: median tumor weight (est.), dose: 0.4 mg/kg/injection, schedule: Q01DX009 (ip), vehicle: acetone, higher = larger tumour) and 90 % of control (endpoint: median tumor weight (est.), dose: 0.8 mg/kg/injection, schedule: Q01DX009 (ip), vehicle: acetone, higher = larger tumour).

Turning to `CCCCN1C(=O)/C(=C/c2ccccc2OC)SC1=S`, the T/C is 103 % of control under setting [1]; 107 % of control under setting [2]; 93 % of control under setting [3]; 98 % of control under setting [5]; 97 % of control under setting [4]; 107 % of control under setting [6].

On to `OC(CBr)C(O)C(O)C(O)CBr` (stereo unspecified), for which the T/C is, setting by setting: (endpoint: mean tumor weight, dose: 37.5 mg/kg/injection, schedule: Q02DX011 (ip), vehicle: Klucel (hydroxypropylcellulose) (HPC), higher = larger tumour) 66 % of control; (endpoint: mean tumor weight, dose: 75.0 mg/kg/injection, schedule: Q02DX011 (ip), vehicle: Klucel (hydroxypropylcellulose) (HPC), higher = larger tumour) 63 % of control; (endpoint: mean tumor weight, dose: 150.0 mg/kg/injection, schedule: Q02DX011 (ip), vehicle: Klucel (hydroxypropylcellulose) (HPC), higher = larger tumour) 52 % of control; (endpoint: median survival time, dose: 30.0 mg/kg/injection, schedule: Q04DX009 (ip), vehicle: saline with Tween-80, higher = longer survival) 108 % of control; (endpoint: median survival time, dose: 60.0 mg/kg/injection, schedule: Q02DX033 (ip), vehicle: saline with Tween-80, higher = longer survival) 112 % of control; (endpoint: median survival time, dose: 60.0 mg/kg/injection, schedule: Q04DX009 (ip), vehicle: saline with Tween-80, higher = longer survival) 108 % of control. Further, the T/C was 158 % of control (endpoint: median survival time, dose: 120.0 mg/kg/injection, schedule: Q02DX033 (ip), vehicle: saline with Tween-80, higher = longer survival); 112 % of control (endpoint: median survival time, dose: 120.0 mg/kg/injection, schedule: Q04DX009 (ip), vehicle: saline with Tween-80, higher = longer survival); 75 % of control (endpoint: median tumor weight (est.), dose: 37.5 mg/kg/injection, schedule: Q02DX011 (ip), vehicle: Klucel (hydroxypropylcellulose) (HPC), higher = larger tumour); 90 % of control (endpoint: median tumor weight (est.), dose: 75.0 mg/kg/injection, schedule: Q02DX011 (ip), vehicle: Klucel (hydroxypropylcellulose) (HPC), higher = larger tumour); 72 % of control (endpoint: median tumor weight (est.), dose: 150.0 mg/kg/injection, schedule: Q02DX011 (ip), vehicle: Klucel (hydroxypropylcellulose) (HPC), higher = larger tumour).

Regarding `COc1ccc(/C=C2\SC(=S)N(C3CC3)C2=O)cc1OC`, the T/C was 95 % of control under setting [1]; 93 % of control under setting [2]; 100 % of control under setting [3]; 90 % of control under setting [5]; 88 % of control under setting [4]; 79 % of control under setting [6].

For the compound `O=[N+]([O-])c1ccc(CSc2ncnc3c2ncn3C2OC(COP(=O)(O)O)C(O)C2O)cc1` (stereo unspecified), for the setting “endpoint: median survival time, dose: 64.8 mg/kg/injection, schedule: Q01DX005 (ip), vehicle: saline, higher = longer survival”, the T/C was 115 % of control and 118 % of control.
